Legend:
[1] = test system: GPR142; test: FLG mRNA and GPR142 mRNA in GPR142-overexpressing NHEK cells (Example 7); format: cell-based, human; conditions: 10 nM, 1 day
Experimental: In this example, the FLG mRNA expression-inducing effect of Compound 1 in GPR142-overexpressing NHEK cells was confirmed.
1) 5×10^4 cells/well of NHEK cells (Invitrogen) were plated on a 24-well plate. Then, a culture medium containing a medium for proliferating normal human epidermal keratinocytes (HuMedia-KG2, KURABO INDUSTRIES LTD.) supplemented with hEGF (0.1 ng/ml), insulin (10 μg/ml), hydrocortisone (0.5 μg/ml), gentamycin (50 μg/ml), amphotericin B (50 ng/ml), and bovine brain pituitary extract (BPE) (0.4%, v/v) was added to the plate, and the cells were cultured under the conditions of 37° C. and 5% CO2.
2) A GPR142pCXN mammalian expression vector was prepared by incorporating a human GPR142 gene coding region containing the base sequence set forth in SEQ ID NO: 2 into the EcoRI restriction site of the cloning site in a mammalian expression vector pCXN (Gene 108: 193-199 (1991)). […]
5) An extraction reagent (TRIzol™, Invitrogen) was used, and according to the manufacturer's protocol, total RNA was extracted from each of cells treated with the medicament. […] Real-time PCR was conducted by using the same primers as those for GPR142, FLG, and GAPDH used in Example 4 and SYBR™ PremixEx Taq (Takara) with a CFX96 real-time PCR instrument according to the manufacturer's protocol, and the amounts of GPR142 mRNA and FLG mRNA were measured. […]

[2] = test system: FLG protein; test: FLG protein in cultured human normal skin, immunohistostaining (Example 12); format: cell-based; conditions: 1 μM, 4 days
Source text: In this example, the expression-increasing effect of Compound 1 (N-quinolylbenzamide derivative) on FLG monomer was examined by using human normal skin. The expression of the FLG monomer was confirmed by an immunohistostaining method using an anti-human FLG antibody. The medium used was a medium for proliferating normal human epidermal keratinocytes (HuMedia-KG2, KURABO INDUSTRIES LTD.). It should be noted that, in this example, surplus portions of normal skin derived from extirpation of portions of a skin disease were used under the agreement by the donor through Ethics Committee of Kyoto University.
1) Human normal skin (with a size of 5×5×5 mm) was put on a transwell of a 24-well transwell plate, 500 μl of the medium, to which Compound 1 (1 μM) or a control (vehicle (DMSO)) was added, were added to the lower part, and the skin was cultured. After culture for 2 days, the medium was exchanged for the same medium.
2) After 4 days, the cultured skin was collected, and was soaked in 10% formalin overnight, and thereafter, a paraffin section having a thickness of […] was prepared according to a conventional method. […]

[3] = test system: atopic dermatitis mouse model (NC/Nga); test: Dermatitis-alleviating effect in atopic dermatitis mouse model (NC/Nga) (Example 14); format: in vivo
Experimental: Experiments were conducted with raising 6- to 10-week-old atopic dermatitis-developing NC/Nga mice with mites (Japan SLC, Inc.) under a normal environment. Namely, the dermatitis-alleviating effect was measured by the oral administration of 500 μl of a solution obtained by dissolving Compound 1 at 0.75 mg/ml in a methyl cellulose solution (0.5 W/V % Methyl Cellulose 400 Solution, Wako, 133-14255) to an NC/Nga mouse developing dermatitis majorly in the ear auricles and the head (0.375 mg of Compound 1 was administered to the mouse per time) every other day. As a control, 500 μl of the methylcellulose solution were administered orally every other day.
With regard to clinical manifestations, the evaluation was conducted on a four-point scale of none (0), weak (1), moderate (2), and severe (3) by visual inspection for four items of erythema, edema, erosion, and squama. The evaluated values of the four items were summed to give a score before the start of oral administration (0 wk), 4 weeks after the oral administration (4 wk), and 8 weeks after the oral administration (8 wk), and then the clinical manifestations of a mouse model were measured as a clinical score. Further, the oral administration was ended 8 weeks after the start of oral administration, and thereafter, the mouse was continued to be kept under the same conditions. 4 weeks after the end of oral administration (12 wk after the start of oral administration), clinical manifestations were scored in the same manner.
A TEWL was measured 8 and 12 weeks after the start of oral administration in the above-mentioned section (i) using a tape type closed chamber system water transpiration measuring instrument VAPO SCAN AS-VT100RS (ASAHI BIOMED) according to the manufacturer's manual.
The appearances of the developing NC/Nga mice 12 weeks after the start of oral administration (the oral administration was ended 8 weeks after the start of oral administration) in (i) described above were shown in FIGS. 16(a) and 16(b).

Compound: CCc1ccc(OCc2ccccc2C(=O)Nc2ccc3nc(C)cc(N)c3c2)cc1.Cl [Compound 1, N-(4-Amino-2-methyl-6-quinolyl)-2-[(4-ethylphenoxy)methyl]benzamide hydrochloride]
- FLG mRNA expression (GAPDH ratio) ([1]; GPR142-overexpressing NHEK cells): increased FLG mRNA expression
- expression amount of GPR142 mRNA, increase as compared to the control ([1]; NHEK cells): about 2.2 times
- development of the stratum corneum [2]: greater than that of the control
- FLG protein within the skin ([2]; immunohistostaining): markedly increased
- appearance of developing NC/Nga mouse ([3]; 12 weeks after start of oral administration, 4 weeks after the end): almost good clinical manifestations were kept
- amount of water transpiration (TEWL) ([3]; NC/Nga mouse, 4 weeks after the end of oral administration (12 weeks after the start)): suppressed as compared to the control
- clinical manifestations of dermatitis (clinical score) ([3]; NC/Nga mouse, 4 weeks after the end of oral administration (12 wk after the start)): symptoms of dermatitis were suppressed as compared to the control
- clinical manifestations of dermatitis (clinical score) ([3]; NC/Nga mouse, oral 0.375 mg every other day, 8 weeks after the start of oral administration): symptoms of dermatitis were alleviated
- transepidermal water loss (TEWL) ([3]; developing NC/Nga mouse, oral 0.375 mg every other day, after 8 weeks, control about 60): about 10 g/h·m^2

From patent US20150190416A1, “FILAGGRIN PRODUCTION PROMOTER, THERAPEUTIC AGENT FOR DISEASES ASSOCIATED WITH REDUCTION IN PRODUCTION OF FILAGGRIN, AND METHOD FOR SCREENING FOR SAID THERAPEUTIC AGENT” (KYOTO UNIVERSITY, priority 2012, published 2015)
